The values below come from US20230092890A1, “1, 3, 4-Oxadiazole derivative compounds as histone deacetylase 6 inhibitor, and the pharmaceutical composition comprising the same” (Chong Kun Dang Pharmaceutical Corp., priority 2019, published 2023).

Each structure is given as a SMILES string. Bounds are passed on as bounds.

One assay deals with T1, HDAC1 (Homo sapiens, UniProt Q13547).
T1 construct: purchased Enzolifesciences BML-AK511
Briefly: HDAC enzyme activity inhibition (in vitro), HDAC1 Fluorimetric Drug Discovery Assay Kit. It is filed as biochemical. To be noted: samples at 100, 1000 and 10000 nM; 37° C. 60 minutes; fluorescence Ex 390, Em 460; read-out: HDAC1 IC50. A digest of the protocol:
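HDAC1 was tested at 100, 1000 and 10000 nM and recombinant human HDAC6 at 0.1, 1, 10, 100 and 1000 nM. Enzyme reactions ran 60 min at 37° C, then developer was added for 30 min at 37° C, and fluorescence (Ex 390, Em 460) was read.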

A further assay concerns the target T2, HDAC6 human recombinant (Homo sapiens, UniProt Q9UBN7).
T2 construct: purchased Calbiochem 382180
T2 sequence (Q9UBN7 1-1215): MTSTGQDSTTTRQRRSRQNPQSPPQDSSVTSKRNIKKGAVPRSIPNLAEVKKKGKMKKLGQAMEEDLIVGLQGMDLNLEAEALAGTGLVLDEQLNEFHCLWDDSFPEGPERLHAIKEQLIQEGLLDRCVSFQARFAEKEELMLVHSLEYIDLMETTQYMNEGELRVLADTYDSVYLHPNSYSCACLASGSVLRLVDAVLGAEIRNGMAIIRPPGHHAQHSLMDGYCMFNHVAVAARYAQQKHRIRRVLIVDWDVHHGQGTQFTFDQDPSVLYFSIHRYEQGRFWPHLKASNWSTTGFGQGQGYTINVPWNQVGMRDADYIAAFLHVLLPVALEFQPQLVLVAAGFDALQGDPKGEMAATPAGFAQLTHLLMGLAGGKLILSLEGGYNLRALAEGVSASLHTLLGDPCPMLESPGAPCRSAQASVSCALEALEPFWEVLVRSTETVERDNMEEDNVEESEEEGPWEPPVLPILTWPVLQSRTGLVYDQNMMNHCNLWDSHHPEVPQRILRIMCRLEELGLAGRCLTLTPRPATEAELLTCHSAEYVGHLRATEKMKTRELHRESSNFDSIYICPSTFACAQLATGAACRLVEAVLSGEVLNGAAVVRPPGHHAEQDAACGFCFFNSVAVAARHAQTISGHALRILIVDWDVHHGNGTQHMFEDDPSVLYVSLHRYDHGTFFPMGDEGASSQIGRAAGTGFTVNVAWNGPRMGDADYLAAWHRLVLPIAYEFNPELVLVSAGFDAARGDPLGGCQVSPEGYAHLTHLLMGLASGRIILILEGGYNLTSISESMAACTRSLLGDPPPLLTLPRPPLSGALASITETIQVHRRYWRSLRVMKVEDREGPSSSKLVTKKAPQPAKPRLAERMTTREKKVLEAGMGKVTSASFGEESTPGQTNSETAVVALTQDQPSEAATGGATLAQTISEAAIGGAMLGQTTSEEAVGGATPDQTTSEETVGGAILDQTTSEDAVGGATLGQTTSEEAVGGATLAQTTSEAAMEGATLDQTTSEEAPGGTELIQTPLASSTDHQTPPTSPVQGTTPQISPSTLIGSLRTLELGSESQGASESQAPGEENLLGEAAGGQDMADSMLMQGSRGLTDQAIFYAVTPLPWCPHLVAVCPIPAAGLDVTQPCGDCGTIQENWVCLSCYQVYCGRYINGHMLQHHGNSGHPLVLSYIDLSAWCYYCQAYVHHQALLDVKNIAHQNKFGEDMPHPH
Briefly: HDAC enzyme activity inhibition (in vitro), HDAC6 assay. It is filed as biochemical. The note with it: samples at 0.1, 1, 10, 100 and 1000 nM; 37° C. 60 minutes; fluorescence Ex 390, Em 460; read-out: HDAC6 IC50. A digest of the protocol:
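HDAC6 human recombinant enzyme with fluorimetric substrate; […]. Reaction 60 min at 37° C, then developer 30 min at 37° C; fluorescence read at Ex 390/Em 460.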

T1 sequence (Q13547 whole entry): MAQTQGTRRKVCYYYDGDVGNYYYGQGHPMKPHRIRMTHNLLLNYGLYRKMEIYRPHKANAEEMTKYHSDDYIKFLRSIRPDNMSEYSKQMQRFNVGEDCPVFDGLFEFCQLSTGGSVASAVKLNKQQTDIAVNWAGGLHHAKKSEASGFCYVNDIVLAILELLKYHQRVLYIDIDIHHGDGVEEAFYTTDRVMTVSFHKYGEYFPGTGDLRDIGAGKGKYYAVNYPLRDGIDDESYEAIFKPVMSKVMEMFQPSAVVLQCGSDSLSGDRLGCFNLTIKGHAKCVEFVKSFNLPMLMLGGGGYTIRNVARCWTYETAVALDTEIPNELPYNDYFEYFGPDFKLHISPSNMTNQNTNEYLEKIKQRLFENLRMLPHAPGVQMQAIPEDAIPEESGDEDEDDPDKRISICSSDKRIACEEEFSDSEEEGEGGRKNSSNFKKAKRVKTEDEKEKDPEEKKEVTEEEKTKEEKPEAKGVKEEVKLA

For `Cn1c(=O)n(Cc2ccc(-c3nnc(C(F)F)o3)cn2)c2cc(F)c(Br)cc21` [Compound 147, 5-bromo-1-((5-(5-(difluoromethyl)-1,3,4-oxadiazole-2-yl)pyridine-2-yl)methyl)-6-fluoro-3-methyl-1,3-dihydro-2H-benzo[d]imidazole-2-one], the values for the IC50 on HDAC1 and at HDAC6 human recombinant were over 10000 nM and 15 nM, respectively.
In the case of `Cn1c(=O)n(Cc2ccc(-c3nnc(C(F)F)o3)cc2F)c2cc(F)c(Br)cc21` [Compound 148, 5-bromo-1-(4-(5-(difluoromethyl)-1,3,4-oxadiazole-2-yl)-2-fluorobenzyl)-6-fluoro-3-methyl-1,3-dihydro-2H-benzo[d]imidazole-2-one], the IC50 on HDAC1 was over 10000 nM; on HDAC6 human recombinant it was 61 nM.
The like results for `CN1CCC(n2c(=O)n(Cc3ccc(-c4nnc(C(F)F)o4)cn3)c3cc(F)c(Br)cc32)CC1` [Compound 149, 5-bromo-1-((5-(5-(difluoromethyl)-1,3,4-oxadiazole-2-yl)pyridine-2-yl)methyl)-6-fluoro-3-(1-methylpiperidine-4-yl)-1,3-dihydro-2H-benzo[d]imidazole-2-one] were, in that order, over 10000 nM and 40 nM.
For the molecule `CN1CCC(n2c(=O)n(Cc3ccc(-c4nnc(C(F)F)o4)cn3)c3cc(F)c(-c4ccoc4)cc32)CC1` [Compound 150, 1-((5-(5-(difluoromethyl)-1,3,4-oxadiazole-2-yl)pyridine-2-yl)methyl)-6-fluoro-5-(furan-3-yl)-3-(1-methylpiperidine-4-yl)-1,3-dihydro-2H-benzo[d]imidazole-2-one], the values for the IC50 on HDAC1 and on HDAC6 human recombinant were over 10000 nM and 43 nM, respectively.
In the case of `CN1CCC(n2c(=O)n(Cc3ccc(-c4nnc(C(F)F)o4)cn3)c3cc(F)c(-c4ccco4)cc32)CC1` [Compound 151, 1-((5-(5-(difluoromethyl)-1,3,4-oxadiazole-2-yl)pyridine-2-yl)methyl)-6-fluoro-5-(furan-2-yl)-3-(1-methylpiperidine-4-yl)-1,3-dihydro-2H-benzo[d]imidazole-2-one], the IC50 at HDAC1 is over 10000 nM; at HDAC6 human recombinant it was 55 nM.
The matching figures for `CN1CCC(n2c(=O)n(Cc3ccc(-c4nnc(C(F)F)o4)cn3)c3cc(F)c(-c4ccccc4F)cc32)CC1` [Compound 152, 1-((5-(5-(difluoromethyl)-1,3,4-oxadiazole-2-yl)pyridine-2-yl)methyl)-6-fluoro-5-(2-fluorophenyl)-3-(1-methylpiperidine-4-yl)-1,3-dihydro-2H-benzo[d]imidazole-2-one]: over 10000 nM and 34 nM.
The matching figures for `CN1CCC(n2c(=O)n(Cc3ccc(-c4nnc(C(F)F)o4)cn3)c3cc(F)c(-c4ccncc4)cc32)CC1` [Compound 153, 1-((5-(5-(difluoromethyl)-1,3,4-oxadiazole-2-yl)pyridine-2-yl)methyl)-6-fluoro-3-(1-methylpiperidine-4-yl)-5-(pyridine-4-yl)-1,3-dihydro-2H-benzo[d]imidazole-2-one]: over 10000 nM and 16 nM.
With `CN1CCC(n2c(=O)n(Cc3ccc(-c4nnc(C(F)F)o4)cn3)c3cc(F)c(-c4cccc(F)c4)cc32)CC1` [Compound 154, 1-((5-(5-(difluoromethyl)-1,3,4-oxadiazole-2-yl)pyridine-2-yl)methyl)-6-fluoro-5-(3-fluorophenyl)-3-(1-methylpiperidine-4-yl)-1,3-dihydro-2H-benzo[d]imidazole-2-one], the 50% inhibitory concentration (IC50) is over 10000 nM at HDAC1 and 42 nM at HDAC6 human recombinant.
For the molecule `CN1CCC(n2c(=O)n(Cc3ccc(-c4nnc(C(F)F)o4)cn3)c3cc(F)c(-c4cccnc4)cc32)CC1` [Compound 155, 1-((5-(5-(difluoromethyl)-1,3,4-oxadiazole-2-yl)pyridine-2-yl)methyl)-6-fluoro-3-(1-methylpiperidine-4-yl)-5-(pyridine-3-yl)-1,3-dihydro-2H-benzo[d]imidazole-2-one], the IC50 was over 10000 nM at HDAC1 and 20 nM at HDAC6 human recombinant.
Consider `CN1CCC(c2ccc3c(c2)n(C2CCN(C)CC2)c(=O)n3Cc2ccc(-c3nnc(C(F)F)o3)cc2F)CC1` [Compound 156, 1-(4-(5-(difluoromethyl)-1,3,4-oxadiazole-2-yl)-2-fluorobenzyl)-3,5-bis(1-methylpiperidine-4-yl)-1,3-dihydro-2H-benzo[d]imidazole-2-one], for which the IC50 on HDAC1 is over 10000 nM; at HDAC6 human recombinant, 102 nM.
The matching figures for `CC(=O)N1CCC(c2ccc3c(c2)n(C2CCN(C)CC2)c(=O)n3Cc2ccc(-c3nnc(C(F)F)o3)cc2F)CC1` [Compound 157, 5-(1-acetylpiperidine-4-yl)-1-(4-(5-(difluoromethyl)-1,3,4-oxadiazole-2-yl)-2-fluorobenzyl)-3-(1-methylpiperidine-4-yl)-1,3-dihydro-2H-benzo[d]imidazole-2-one]: over 10000 nM and 159 nM.
`CN1CCC(n2c(=O)n(Cc3ccc(-c4nnc(C(F)F)o4)cc3F)c3ccc(C4CCN(S(C)(=O)=O)CC4)cc32)CC1` [Compound 158, 1-(4-(5-(difluoromethyl)-1,3,4-oxadiazole-2-yl)-2-fluorobenzyl)-3-(1-methylpiperidine-4-yl)-5-(1-(methylsulfonyl)piperidine-4-yl)-1,3-dihydro-2H-benzo[d]imidazole-2-one]: the IC50 on HDAC1 was over 10000 nM; at HDAC6 human recombinant, 138 nM.
The matching figures for `CN1CCC(n2c(=O)n(Cc3ccc(-c4nnc(C(F)F)o4)cc3F)c3ccc(-c4cccc(F)c4)cc32)CC1` [Compound 159, 1-(4-(5-(difluoromethyl)-1,3,4-oxadiazole-2-yl)-2-fluorobenzyl)-5-(3-fluorophenyl)-3-(1-methylpiperidine-4-yl)-1,3-dihydro-2H-benzo[d]imidazole-2-one]: over 10000 nM and 71 nM.
The matching figures for `CN1CCC(n2c(=O)n(Cc3ccc(-c4nnc(C(F)F)o4)cc3F)c3ccc(-c4ccccc4F)cc32)CC1` [Compound 160, 1-(4-(5-(difluoromethyl)-1,3,4-oxadiazole-2-yl)-2-fluorobenzyl)-5-(2-fluorophenyl)-3-(1-methylpiperidine-4-yl)-1,3-dihydro-2H-benzo[d]imidazole-2-one]: over 10000 nM and 92 nM.
As for `CN1CCC(n2c(=O)n(Cc3ccc(-c4nnc(C(F)F)o4)cc3F)c3ccc(-c4ccncc4)cc32)CC1` [Compound 161, 1-(4-(5-(difluoromethyl)-1,3,4-oxadiazole-2-yl)-2-fluorobenzyl)-3-(1-methylpiperidine-4-yl)-5-(pyridine-4-yl)-1,3-dihydro-2H-benzo[d]imidazole-2-one], the IC50 is over 10000 nM on HDAC1 and 40 nM at HDAC6 human recombinant.
Turning to `CN1CCC(n2c(=O)n(Cc3ccc(-c4nnc(C(F)F)o4)cc3F)c3ccc(-c4ccoc4)cc32)CC1` [Compound 162, 1-(4-(5-(difluoromethyl)-1,3,4-oxadiazole-2-yl)-2-fluorobenzyl)-5-(furan-3-yl)-3-(1-methylpiperidine-4-yl)-1,3-dihydro-2H-benzo[d]imidazole-2-one], the IC50 at HDAC1 is over 10000 nM; on HDAC6 human recombinant, 39 nM.
As to `Cc1ccc(-c2ccc3c(c2)n(C2CCN(C)CC2)c(=O)n3Cc2ccc(-c3nnc(C(F)F)o3)cc2F)o1` [Compound 163, 1-(4-(5-(difluoromethyl)-1,3,4-oxadiazole-2-yl)-2-fluorobenzyl)-5-(5-methylfuran-2-yl)-3-(1-methylpiperidine-4-yl)-1,3-dihydro-2H-benzo[d]imidazole-2-one], the IC50 at HDAC1 was over 10000 nM; at HDAC6 human recombinant, 91 nM.
